# Results from patent US20040053817A1, “Delayed-release pharmaceutical formulations” (priority 2000, published 2004).
# How the values were obtained:
# [1] = Water-solubility of human C-peptide; assay type: physicochemical; details: observed when preparing formulations; phase-separation methods gave high losses of active substance
# [2] = cited from earlier work
structure (smiles),measurement,setting,value
CC(C)C[C@H](NC(=O)[C@H](C)NC(=O)[C@H](CC(C)C)NC(=O)[C@@H]1CCCN1C(=O)[C@H](CCC(N)=O)NC(=O)[C@H](CC(C)C)NC(=O)[C@H](CO)NC(=O)CNC(=O)[C@H](C)NC(=O)CNC(=O)[C@@H]1CCCN1C(=O)CNC(=O)CNC(=O)CNC(=O)[C@H](CC(C)C)NC(=O)[C@H](CCC(=O)O)NC(=O)[C@@H](NC(=O)[C@H](CCC(N)=O)NC(=O)CNC(=O)[C@@H](NC(=O)[C@H](CCC(N)=O)NC(=O)[C@H](CC(C)C)NC(=O)[C@H](CC(=O)O)NC(=O)[C@H](CCC(=O)O)NC(=O)[C@H](C)NC(=O)[C@@H](N)CCC(=O)O)C(C)C)C(C)C)C(=O)N[C@@H](CCC(=O)O)C(=O)NCC(=O)N[C@@H](CO)C(=O)N[C@@H](CC(C)C)C(=O)N[C@@H](CCC(N)=O)C(=O)O [C-peptide],water-solubility,[1],strong water-solubility
same,half-life of plasma in humans,[2],about 40 minutes
